Measurements as given in PubChem BioAssay AID330 (DTP/NCI, 2004).
Several values for one entry are separate records, joined by “and”; a condition that tells them apart may be missing. Equal values may be shown once. Inconclusive results and toxic doses are left out. Rule for the calls: active = survival T/C of 150% or more; inactive = T/C below 125% in these data.

System: P388 leukemia ip, CD2F1 mice, survival T/C
Assay: NCI In Vivo Anticancer Drug Screen. Data for tumor model P388 Leukemia (intraperitoneal) in CD2F1 (CDF1) mice
Conditions: endpoint: median survival time, higher = longer survival
Outline: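 Mice carrying the transplanted tumor received test compound or vehicle. Survival was recorded in each group, and the value is the treated-group measurement divided by that of the vehicle-treated control group.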

[1] = dose: 60.0 mg/kg/injection, schedule: Q01DX005 (ip), vehicle: Klucel (hydroxypropylcellulose) (HPC)
[2] = dose: 120.0 mg/kg/injection, schedule: Q01DX005 (ip), vehicle: Klucel (hydroxypropylcellulose) (HPC)
[3] = dose: 240.0 mg/kg/injection, schedule: Q01DX005 (ip), vehicle: Klucel (hydroxypropylcellulose) (HPC)
[4] = dose: 50.0 mg/kg/injection, schedule: Q01DX005 (ip), vehicle: saline with Tween-80
[5] = dose: 100.0 mg/kg/injection, schedule: Q01DX005 (ip), vehicle: saline with Tween-80
[6] = dose: 200.0 mg/kg/injection, schedule: Q01DX005 (ip), vehicle: saline with Tween-80
[7] = dose: 50.0 mg/kg/injection, schedule: Q01DX005 (ip), vehicle: saline
[8] = dose: 100.0 mg/kg/injection, schedule: Q01DX005 (ip), vehicle: saline
[9] = dose: 200.0 mg/kg/injection, schedule: Q01DX005 (ip), vehicle: saline
[10] = dose: 50.0 mg/kg/injection, schedule: Q01DX009 (ip), vehicle: saline with Tween-80
[11] = dose: 100.0 mg/kg/injection, schedule: Q01DX009 (ip), vehicle: saline with Tween-80
[12] = dose: 25.0 mg/kg/injection, schedule: Q01DX009 (ip), vehicle: saline with Tween-80
[13] = dose: 12.5 mg/kg/injection, schedule: Q01DX009 (ip), vehicle: Klucel (hydroxypropylcellulose) (HPC)
[14] = dose: 25.0 mg/kg/injection, schedule: Q01DX009 (ip), vehicle: Klucel (hydroxypropylcellulose) (HPC)
[15] = dose: 60.0 mg/kg/injection, schedule: Q01DX005 (ip), vehicle: saline with Tween-80
[16] = dose: 120.0 mg/kg/injection, schedule: Q01DX005 (ip), vehicle: saline with Tween-80

Measured: T/C

CC(=O)c1ccc(N(C)C(=O)C(Cl)Cl)cc1
inactive: dose: 100.0 mg/kg/injection, schedule: Q04DX003 (ip), vehicle: Klucel (hydroxypropylcellulose) (HPC) 100 % of control | dose: 200.0 mg/kg/injection, schedule: Q04DX003 (ip), vehicle: Klucel (hydroxypropylcellulose) (HPC) 100 % of control | dose: 400.0 mg/kg/injection, schedule: Q04DX003 (ip), vehicle: Klucel (hydroxypropylcellulose) (HPC) 100 % of control

COC(=O)NN(C(=O)OC)C1CCC2C1c1ccccc1N(C(=O)OC)N2C(=O)OC (centres undefined)
inactive: [1] 108 % of control | [2] 113 % of control | [3] 103 % of control

O=C(NC(Cc1ccc(O)cc1)C(=O)NC(Cc1c[nH]c2ccccc12)C(=O)O)OCc1ccccc1 (centres undefined)
inactive: [4] 106 % of control | [5] 103 % of control | [6] 106 % of control

OCC1CC2CCCCN2O1 (centres undefined)
inactive: dose: 25.0 mg/kg/injection, schedule: Q01DX005 (ip), vehicle: saline 102 % of control | [7] 101 % of control | [8] 105 % of control | [9] 106 % of control

NC(CCSSCCC(N)P(=O)(O)O)P(=O)(O)O (centres undefined)
inactive: [4] 95 % of control | [5] 92 % of control | [6] 99 % of control

Cc1ccccc1/C=N\N1C(=O)C(C)SC1c1ccccc1C (centres undefined)
inactive: [10] 91 % of control | [11] 93 % of control

CC(C)(C)N(O)c1cccc(P(=O)(c2ccccc2)c2ccccc2)c1
inactive: [12] 108 % of control | [10] 94 % of control | [11] 92 % of control

CC1CCC(C(C)C)C(OC(=O)c2cccc[n+]2C)C1 (centres undefined)
inactive: dose: 3.75 mg/kg/injection, schedule: Q01DX005 (ip), vehicle: saline 107 % of control | dose: 7.5 mg/kg/injection, schedule: Q01DX005 (ip), vehicle: saline 103 % of control | dose: 15.0 mg/kg/injection, schedule: Q01DX005 (ip), vehicle: saline 110 % of control | dose: 30.0 mg/kg/injection, schedule: Q01DX005 (ip), vehicle: saline 104 % of control and 119 % of control

COC1(OC)C(c2ccccc2)C(C#N)(S(=O)(=O)c2ccccc2)C1(OC)OC (centres undefined)
inactive: [1] 100 % of control | [2] 98 % of control | [3] 100 % of control

COc1ccc(/C=C/C2=C(C(=O)O)CCCO2)cc1
inactive: dose: 100.0 mg/kg/injection, schedule: Q04DX002 (ip), vehicle: saline with Tween-80 103 % of control | dose: 200.0 mg/kg/injection, schedule: Q04DX002 (ip), vehicle: saline with Tween-80 100 % of control | dose: 400.0 mg/kg/injection, schedule: Q04DX002 (ip), vehicle: saline with Tween-80 90 % of control

COc1ccc2c(c1)CCC1(C)CC(=O)C=C21 (centres undefined)
inactive: dose: 6.25 mg/kg/injection, schedule: Q01DX009 (ip), vehicle: Klucel (hydroxypropylcellulose) (HPC) 115 % of control | [13] 114 % of control | [14] 108 % of control

CC(C)=Nn1c(=O)oc2cc(Cl)ccc2c1=O
inactive: [1] 95 % of control | [2] 100 % of control | [3] 93 % of control

CCC(C)(C(=O)Nc1ccc2nc(C)cc(N)c2c1)C(=O)Nc1ccc2nc(C)cc(N)c2c1
inactive: [4] 87 % of control | [5] 96 % of control | [6] 100 % of control

O=C(O)C(c1ccccc1)C1CCCCC1C1CCCCC1 (centres undefined)
inactive: dose: 12.5 mg/kg/injection, schedule: Q01DX005 (ip), vehicle: saline with Tween-80 98 % of control | dose: 25.0 mg/kg/injection, schedule: Q01DX005 (ip), vehicle: saline with Tween-80 95 % of control | [4] 100 % of control and 93 % of control

O=C1C(=C(O)c2ccccc2)C(=O)c2ccccc21
inactive: dose: 15.0 mg/kg/injection, schedule: Q01DX005 (ip), vehicle: saline with Tween-80 99 % of control | dose: 30.0 mg/kg/injection, schedule: Q01DX005 (ip), vehicle: saline with Tween-80 105 % of control | [15] 105 % of control and 109 % of control | [16] 104 % of control

COc1cc(CC2c3cc(OC)c(OC)cc3CCN2C)c(Oc2cc3c(cc2OC)-c2c(O)c(OC)cc4c2C(C3)N(C)CC4)cc1OC (centres undefined)
inactive: dose: 12.5 mg/kg/injection, schedule: Q04DX003 (ip), vehicle: saline with Tween-80 101 % of control | dose: 25.0 mg/kg/injection, schedule: Q04DX003 (ip), vehicle: saline with Tween-80 101 % of control | dose: 50.0 mg/kg/injection, schedule: Q04DX003 (ip), vehicle: saline with Tween-80 100 % of control | dose: 200.0 mg/kg/injection, schedule: Q04DX003 (ip), vehicle: saline with Tween-80 89 % of control | dose: 400.0 mg/kg/injection, schedule: Q04DX003 (ip), vehicle: saline with Tween-80 97 % of control

O=c1[nH]c(=O)n(C2OC(CO)C(O)C2O)cc1N1CCOCC1 (centres undefined)
inactive: [7] 100 % of control | [8] 100 % of control | [9] 98 % of control

OCC(O)C(O)C(O)C(O)c1nn[nH]n1 (centres undefined)
inactive: dose: 100.0 mg/kg/injection, schedule: Q01DX001 (ip), vehicle: saline 95 % of control | dose: 200.0 mg/kg/injection, schedule: Q01DX001 (ip), vehicle: saline 101 % of control | dose: 400.0 mg/kg/injection, schedule: Q01DX001 (ip), vehicle: saline 92 % of control

Cc1cc(NCCCCN2CCOCC2)nc2ccc3ccccc3c12
inactive: [4] 101 % of control | [5] 105 % of control

CCN(CC)CC.[CH-]1CCCCC1.[CH-]1CCCCC1.[CH-]1CCCCC1.[Cl-].[I-].[Sn+4]
inactive: dose: 1.5 mg/kg/injection, schedule: Q01DX005 (ip), vehicle: Klucel (hydroxypropylcellulose) (HPC) 96 % of control | dose: 3.0 mg/kg/injection, schedule: Q01DX005 (ip), vehicle: Klucel (hydroxypropylcellulose) (HPC) 98 % of control | dose: 6.0 mg/kg/injection, schedule: Q01DX005 (ip), vehicle: Klucel (hydroxypropylcellulose) (HPC) 100 % of control and 93 % of control

Cc1cccc2nccn12
inactive: dose: 6.25 mg/kg/injection, schedule: Q01DX009 (ip), vehicle: saline with Tween-80 97 % of control | dose: 12.5 mg/kg/injection, schedule: Q01DX009 (ip), vehicle: saline with Tween-80 95 % of control | [12] 97 % of control | [10] 100 % of control

COC(=O)C1C(O)C(C)C(O)C(C)(O)/C=C/C=C(C)C(=O)Nc2c(C)c(OC(C)=O)c3c(c2O)C(=O)C(C)=C2OCOC(=C23)C(C)=CC(C)(O)C(O)C(C)C1OC(C)=O (centres undefined)
inactive: [15] 95 % of control | [16] 105 % of control | dose: 240.0 mg/kg/injection, schedule: Q01DX005 (ip), vehicle: saline with Tween-80 108 % of control

O=c1[nH]c(=S)[nH]c2c(=O)[nH]c(=S)[nH]c12
inactive: [13] 107 % of control | [14] 101 % of control | dose: 50.0 mg/kg/injection, schedule: Q01DX009 (ip), vehicle: Klucel (hydroxypropylcellulose) (HPC) 101 % of control and 111 % of control

O=C(Nc1ccc(S(=O)(=O)F)cc1)/C(=C/c1cccc([N+](=O)[O-])c1)c1ccccc1
inactive: [1] 102 % of control | [2] 98 % of control | [3] 94 % of control

O=[N+]([O-])c1cc2ccc3ccoc3c2o1
inactive: dose: 50.0 mg/kg/injection, schedule: Q01DX005 (ip), vehicle: Klucel (hydroxypropylcellulose) (HPC) 90 % of control | dose: 100.0 mg/kg/injection, schedule: Q01DX005 (ip), vehicle: Klucel (hydroxypropylcellulose) (HPC) 97 % of control | dose: 200.0 mg/kg/injection, schedule: Q01DX005 (ip), vehicle: Klucel (hydroxypropylcellulose) (HPC) 96 % of control
